Reference: patent US20190233884A1 (University of Southern California, priority 2016, published 2019)
Values joined by “and” are separate entries in the source; they are usually repeats but may differ in a detail not shown here. Identical values can stand only once.

System: patients with refractory metastatic colorectal cancer (mCRC)
Experiment: PFS, OS and disease control in the control cohort of refractory mCRC patients receiving regorafenib (n=52, Italy), by baseline characteristics and SNP genotype
Type: in vivo, human
Procedure: All patients underwent the treatment in salvage-line setting.
(§1) Patients in the control group received 160 mg regorafenib (Bayer, Leverkusen, Germany) once daily from day 1 to 21 every 4 weeks. Doses were adjusted based on haematological and non-haematological adverse events at the treating physician's discretion in accordance with the manufacturer's recommendations. The analyses were approved by the University of Southern California (USC) Institutional Review Board of Medical Sciences and conducted at the USC/Norris Comprehensive Cancer Center in accordance with the Declaration of Helsinki and Good Clinical Practice Guidelines.
(§2) Genomic DNA was extracted from peripheral whole blood in patients of all cohorts using the QIAmp Kit (Qiagen, Valencia, Calif., USA) according to the manufacturer's protocol (www.qiagen.com). The candidate SNPs were genotyped using PCR-based direct DNA sequence analysis by ABI 3100A Capillary Genetic Analyzer and Sequencing Scanner v1.0 (Applied Biosystems). Amplification of extracted DNA was carried out using both forward and reverse primers for each gene polymorphism as shown in Table 1. […] The investigators analyzing SNPs were blinded to the clinical data of the study patients.
The primary endpoint in this study was progression-free survival (PFS), and the secondary endpoints were overall survival (OS) and disease control rate (DCR). PFS was calculated from the date of starting treatment to the first observation of disease progression or death from any cause. If a patient had no disease progression or death, PFS was censored at the date of last follow up. OS was calculated from the date of starting treatment until the date of death from any cause or the date of the last follow-up, at which point OS was censored. The disease control rate (DCR) was defined as the proportion of patients who achieved a stable disease (SD) or […] according to RECISTv1.1. Chi-square test was used to examine the difference in baseline patient characteristics among the three cohorts. Allelic distribution of all SNPs by ethnicity for deviation from Hardy-Weinberg equilibrium and the allelic frequencies of SNPs were tested using the Chi-square tests with one degree of freedom. The associations between candidate SNPs and disease control, and toxicities were examined using contingency tables and Fisher's exact test. The associations of SNPs with PFS and OS were analysed using Kaplan-Meier curves and the log-rank test. Because the true mode of inheritance of candidate SNPs was not established yet, a codominant or dominant genetic model if appropriate was considered.
All patients underwent the treatment in salvage-line setting. […] In all patients, adverse events were graded according to the Common Terminology Criteria for Adverse Events, version 4.0.
as §1, with “events at treating physician's” for “events at the treating physician's”
as §2, with “tested” for “genotyped”, “Biosystems).” for “Biosystems). Amplification of extracted DNA was carried out using both forward and reverse primers for each gene polymorphism as shown in Table 1.”, “data.” for “data of the study patients.”
The primary endpoint in this study was progression-free survival (PFS), and the secondary endpoints were overall survival (OS) and disease control rate (DCR). […]

[1] = control cohort, Sex Female vs Male (Ref.), univariate
[2] = control cohort, Tumor site Left
[3] = control cohort, Tumor site Left vs Right (Ref.), univariate
[4] = control cohort, Tumor site Right
[5] = control cohort, XRCC3 rs861539 A/A
[6] = control cohort, XRCC3 rs861539 A/A vs G/G (Ref.), multivariable
[7] = control cohort, XRCC3 rs861539 A/A vs G/G (Ref.), univariate
[8] = control cohort, XRCC3 rs861539 Any A
[9] = control cohort, XRCC3 rs861539 Any A vs G/G (Ref.), multivariable
[10] = control cohort, XRCC3 rs861539 Any A vs G/G (Ref.), univariate
[11] = control cohort, XRCC3 rs861539 G/A
[12] = control cohort, XRCC3 rs861539 G/A vs G/G (Ref.), multivariable
[13] = control cohort, XRCC3 rs861539 G/A vs G/G (Ref.), univariate
[14] = control cohort, XRCC3 rs861539 G/G
[15] = control cohort, MATE1 rs2289669 A/A
[16] = control cohort, MATE1 rs2289669 G/A
[17] = control cohort, MATE1 rs2289669 G/A and A/A combined
[18] = control cohort, MATE1 rs2289669 G/A and A/A combined vs G/G
[19] = control cohort, MATE1 rs2289669 G/G
[20] = control cohort, OCT2 rs316019 A/A
[21] = control cohort, OCT2 rs316019 C/A
[22] = control cohort, OCT2 rs316019 C/A and A/A combined
[23] = control cohort, OCT2 rs316019 C/A and A/A combined vs C/C
[24] = control cohort, OCT2 rs316019 C/C
[25] = control cohort, adjusted for ECOG performance status and number of metastases
[26] = control cohort, hENT1 rs760370 A/A
[27] = control cohort, hENT1 rs760370 A/G
[28] = control cohort, hENT1 rs760370 A/G vs A/A
[29] = control cohort, hENT1 rs760370 Any G
[30] = control cohort, hENT1 rs760370 Any G vs A/A
[31] = control cohort, hENT1 rs760370 G/G
[32] = control cohort, hENT1 rs760370 G/G vs A/A
[33] = control cohort, hENT rs9394992 C/C
[34] = control cohort, hENT rs9394992 C/T
[35] = control cohort, hENT rs9394992 C/T and T/T combined
[36] = control cohort, hENT rs9394992 C/T and T/T combined vs C/C
[37] = control cohort, hENT rs9394992 T/T

## CNC(=O)c1cc(Oc2ccc(NC(=O)Nc3ccc(Cl)c(C(F)(F)F)c3)c(F)c2)ccn1 [regorafenib]
Control cohort, Sex Female
  Median OS: 5.5 months
  Median PFS: 2.0 months
[1]
  HR OS: 1.18
  HR PFS: 1.02
Control cohort, Sex Male
  Median OS: 5.4 months
  Median PFS: 1.8 months
[2]
  Median OS: 7.2 months
  Median PFS: 2.2 months
[3]
  HR OS: 0.82
  HR PFS: 0.80
[4]
  Median OS: 3.9 months
  Median PFS: 1.8 months
[5]
  Disease Control CR/PR/SD, patients n (%): 3 (43%)
  Median OS (95% CI): 5.4 (2.3, 9.1) months
  Median PFS (95% CI): 2.7 (1.7, 4.3) months
  PD, patients n (%): 4 (57%)
[6]
  HR OS (95% CI): 0.54 (0.21, 1.40)
  HR PFS (95% CI): 0.62 (0.23, 1.65)
[7]
  HR OS (95% CI): 0.34 (0.04, 2.95)
  HR PFS (95% CI): 0.83 (0.34, 2.06)
[8]
  Disease Control CR/PR/SD, patients n (%): 13 (38%)
  Median OS (95% CI): 5.9 (3.8, 8.0) months
  Median PFS (95% CI): 2.0 (1.8, 3.1) months
  PD, patients n (%): 21 (62%)
[9]
  HR OS (95% CI): 0.71 (0.38, 1.31)
  HR PFS (95% CI): 0.85 (0.44, 1.63)
[10]
  HR OS (95% CI): 0.72 (0.22, 2.39)
  HR PFS (95% CI): 0.83 (0.45, 1.53)
[11]
  Disease Control CR/PR/SD, patients n (%): 10 (37%)
  Median OS (95% CI): 6.8 (3.6, 8.7) months
  Median PFS (95% CI): 1.9 (1.8, 3.1) months
  PD, patients n (%): 17 (63%)
[12]
  HR OS (95% CI): 0.76 (0.40, 1.44)
  HR PFS (95% CI): 0.92 (0.47, 1.79)
[13]
  HR OS (95% CI): 0.86 (0.25, 2.96)
  HR PFS (95% CI): 0.83 (0.44, 1.56)
[14]
  Disease Control CR/PR/SD, patients n (%): 4 (27%)
  Median OS (95% CI): 4.1 (1.7, 6.0) months
  Median PFS (95% CI): 1.7 (1.0, 2.2) months
  PD, patients n (%): 11 (73%)
[15]
  Disease Control Rate PD: 5 (50%)
  Disease Control Rate SD: 3 (50%)
[16]
  Disease Control Rate SD: 7 (27%)
  PD, patients n (%): 19 (73%)
[17]
  Overall Survival Median, months (95% CI): 5.3 (3.7, 8.0) months
  Progression-free Survival Median, months (95% CI): 1.8 (1.7, 2.8) months
[18]
  Overall Survival HR (95% CI) multivariate: 0.99 (0.52, 1.91)
  Overall Survival HR (95% CI) univariate: 0.85 (0.50, 1.57)
  Progression-free Survival HR (95% CI) multivariate: 0.86 (0.43, 1.70)
  Progression-free Survival HR (95% CI) univariate: 0.65 (0.48, 1.52)
[19]
  Disease Control Rate PD: 10 (59%)
  Disease Control Rate SD: 7 (41%)
  Overall Survival Median, months (95% CI): 5.7 (2.2, 7.8) months
  Progression-free Survival Median, months (95% CI): 2.1 (1.5, 3.1) months
Control cohort, OCT2 rs316000
  Overall Survival HR (95% CI) univariate: 0.95 (0.50, 1.83)
  Progression-free Survival HR (95% CI) univariate: 0.95 (0.50, 1.83)
[20]
  Disease Control Rate PD: 1 (100%)
  Disease Control Rate SD: 0
[21]
  Disease Control Rate PD: 6 (86%)
  Disease Control Rate SD: 1 (14%)
[22]
  Overall Survival Median, months (95% CI): 5.3 (3.6, 9.6) months
  Progression-free Survival Median, months (95% CI): 1.8 (1.5, 2.0) months
[23]
  Overall Survival HR (95% CI) multivariate: 0.90 (0.39, 2.09)
  Overall Survival HR (95% CI) univariate: 0.79 (0.35, 1.75)
  Progression-free Survival HR (95% CI) multivariate: 1.50 (0.62, 3.61)
  Progression-free Survival HR (95% CI) univariate: 1.00 (0.44, 2.25)
[24]
  Disease Control Rate PD: 25 (61%)
  Disease Control Rate SD: 16 (39%)
  Overall Survival Median, months (95% CI): 3.3 (2.6, 7.9) months
  Progression-free Survival Median, months (95% CI): 2.1 (1.7, 3.2) months
[25]
  Overall Survival HR (95% CI) multivariate: 0.80 (0.40, 1.61)
  Progression-free Survival HR (95% CI) multivariate: 0.88 (0.45, 1.70)
[26]
  Disease Control Rate PD: 15 (65%) and 13 (65%)
  Disease Control Rate SD: 7 (35%)
  Overall Survival Median, months (95% CI): 5.9 (4.5, 8.0) months and 5.9 (4.5, 5.0) months
  Progression-free Survival Median, months (95% CI): 2.1 (1.8, 3.1) months
[27]
  Disease Control Rate PD: 11 (61%)
  Disease Control Rate SD: 7 (39%)
  Overall Survival Median, months (95% CI): 5.7 (2.0, 8.9) months
  Progression-free Survival Median, months (95% CI): 1.9 (1.6, 3.9) months
[28]
  Overall Survival HR (95% CI) multivariate: 0.95 (0.50, 1.90)
  Overall Survival HR (95% CI) univariate: 1.25 (0.67, 2.35)
  Progression-free Survival HR (95% CI) multivariate: 1.08 (0.57, 2.08)
  Progression-free Survival HR (95% CI) univariate: 1.26 (0.67, 2.37)
[29]
  Disease Control Rate PD: 19 (66%)
  Disease Control Rate SD: 10 (34%)
  Overall Survival Median, months (95% CI): 4.1 (2.2, 7.8 ) months
  Progression-free Survival Median, months (95% CI): 1.8 (1.5, 2.2) months
[30]
  Overall Survival HR (95% CI) multivariate: 1.01 (0.55, 1.88)
  Overall Survival HR (95% CI) univariate: 1.22 (0.70, 2.13)
  Progression-free Survival HR (95% CI) multivariate: 1.15 (0.61, 2.15)
  Progression-free Survival HR (95% CI) univariate: 1.25 (0.71, 2.20)
[31]
  Disease Control Rate SD: 3 (27%)
  Overall Survival Median, months (95% CI): 2.4 (1.2, 9.1) months
  PD, patients n (%): 8 (73%)
  Progression-free Survival Median, months (95% CI): 1.4 (0.4, 4.3) months
[32]
  Overall Survival HR (95% CI) multivariate: 1.11 (0.48, 2.56)
  Overall Survival HR (95% CI) univariate: 1.17 (0.55, 2.46)
  Progression-free Survival HR (95% CI) multivariate: 1.57 (0.57, 4.35)
  Progression-free Survival HR (95% CI) univariate: 1.24 (0.59, 2.59)
[33]
  Disease Control Rate PD: 14 (70%)
  Disease Control Rate SD: 6 (30%)
  Overall Survival Median, months (95% CI): 4.4 (2.6, 6.0) months
  Progression-free Survival Median, months (95% CI): 2.0 (1.2, 2.7) months
[34]
  Disease Control Rate PD: 16 (70%)
  Disease Control Rate SD: 7 (30%)
[35]
  Overall Survival Median, months (95% CI): 7.7 (3.7, 8.9) months
  Progression-free Survival Median, months (95% CI): 1.9 (1.7, 3.9) months
[36]
  Overall Survival HR (95% CI) multivariate: 0.64 (0.32, 1.30)
  Overall Survival HR (95% CI) univariate: 0.57 (0.31, 1.05)
  Progression-free Survival HR (95% CI) multivariate: 0.85 (0.46, 1.59)
  Progression-free Survival HR (95% CI) univariate: 0.75 (0.42, 1.32)
[37]
  Disease Control Rate PD: 2 (33%)
  Disease Control Rate SD: 4 (67%)
Control cohort, per OCT2 rs316000 genotype (row), OCT2 rs316000 Any A genotype
  Progression-free Survival Median, months (95% CI): 1.8 (1.6, 2.8) months
Control cohort, per OCT2 rs316000 genotype (row), OCT2 rs316000 G/G genotype
  Progression-free Survival Median, months (95% CI): 2.1 (1.7, 3.1) months
Whole control cohort
  Median OS: 5.3 months
  Median PFS: 1.9 months
